These results are taken from patent US5134124A, “Use of a statin derivative in the treatment of eye complaints” (Sanofi, priority 1989, dated 1992).

The subject of test [1] is intraocular pressure in rabbits. Kind of test: Effect on the intraocular pressure in rabbits after increase by intravenous injection of a 5% glucose solution. Type of test: in vivo. Conditions: eye lotion, pressure increased by intravenous injection of a 5% glucose solution.
The target in the next test is T1, human plasma renin (Homo sapiens, UniProt P00797).
T1 construct: from tissue; host or cells: human plasma
T1 sequence (P00797 67-406): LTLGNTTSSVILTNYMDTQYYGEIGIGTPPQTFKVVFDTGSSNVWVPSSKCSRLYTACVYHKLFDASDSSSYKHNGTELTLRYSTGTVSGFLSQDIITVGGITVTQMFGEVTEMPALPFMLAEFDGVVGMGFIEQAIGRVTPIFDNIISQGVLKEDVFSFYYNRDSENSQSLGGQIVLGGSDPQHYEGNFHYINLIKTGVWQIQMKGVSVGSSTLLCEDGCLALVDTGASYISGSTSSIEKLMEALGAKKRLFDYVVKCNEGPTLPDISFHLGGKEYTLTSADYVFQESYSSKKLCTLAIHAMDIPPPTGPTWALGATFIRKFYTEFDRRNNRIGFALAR
Kind of test: Inhibition of human plasma renin activity at pH 7.4. Type of test: biochemical. As to conditions: method of EP 211 744, read-out: 50% inhibitory concentration (IC50), inhibition of human plasma renin activity. The method, then: The inhibition of human plasma renin activity at pH 7.4 was measured for this compound (I) according to the method described in patent application EP 211 744.

`CCC(C)C(NC(=O)CC(O)C(CC1CCCCC1)NC(=O)C(Cc1cnc[nH]1)NC(=O)C(Cc1ccccc1)NC(=O)CCc1cccnc1)C(=O)NC(O)C(C)CO` (centres unmarked) [compound (I), N-(3-pyridylpropionyl)phenylalanylhistidyl(cyclohexyl)statyl-N-(1,3-dihydroxy-2-methylpropyl)isoleucinamide]: the “effect on the intraocular pressure” value in test [1] is given as “enables the intraocular pressure to return rapidly to its normal value”. For the same molecule, the IC50 at human plasma renin came out at 1 pM.
